Here are results for 24 compounds from patent publication US10526336B2, “Fused heteroaryl derivatives as orexin receptor antagonists” (Merck Sharp & Dohme Corp., priority 2014, dated 2020).

The target in the test is human orexin-2 receptor (Homo sapiens (Human), UniProt O43614). Put plainly: FLIPR Ca2+ Flux Assay, orexin-2 receptor antagonism in CHO cells. The class given is cell-based. The settings on record: CHO cells expressing the human orexin-2 receptor; agonist 70 pM Ala-6,12 orexin-A; read-out: hOX2 FLIPR IC50. As to the method:
The utility of the compounds in accordance with the present invention as orexin receptor OX1R and/or OX2R antagonists may be readily determined without undue experimentation by methodology well known in the art, including the “FLIPR Ca^2+ Flux Assay” (Okumura et al., Biochem. Biophys. Res. Comm. 280:976-981, 2001). In a typical experiment the OX1 and OX2 receptor antagonistic activity of the compounds of the present invention was determined in accordance with the following experimental method. For intracellular calcium measurements, Chinese hamster ovary (CHO) cells expressing the rat orexin-1 receptor or the human orexin-2 receptor, are grown in Iscove's modified DMEM containing 2 mM L-glutamine, […], 1% hypoxanthine-thymidine supplement, 100 U/ml penicillin, 100 μg/ml streptomycin and 10% heat-inactivated fetal calf serum (FCS). The cells are seeded at 20,000 cells/well into Becton-Dickinson black 384-well clear bottom sterile plates coated with poly-D-lysine. All reagents are from GIBCO-Invitrogen Corp. The seeded plates are incubated overnight at 37° C. and 5% CO2. Ala-6,12 human orexin-A as the agonist is prepared as a 1 mM stock solution in 1% bovine serum albumin (BSA) and diluted in assay buffer (HBSS containing 20 mM HEPES, 0.1% BSA and 2.5 mM probenecid, pH7.4) for use in the assay at a final concentration of 70 pM. Test compounds are prepared as 10 mM stock solution in DMSO, then diluted in 384-well plates, first in DMSO, then assay buffer. On the day of the assay, cells are washed 3 times with 100 μl assay buffer and then incubated for 60 min (37° C., 5% CO2) in 60 μl assay buffer containing […] Fluo-4AM ester, 0.02% pluronic acid, and 1% BSA. The dye loading solution is then aspirated and cells are washed 3 times with 100 μl assay buffer. 30 μl of that same buffer is left in each well. Within the Fluorescent Imaging Plate Reader (FLIPR, Molecular Devices), test compounds are added to the plate in a volume of 25 μl, incubated for 5 min and finally 25 μl of agonist is added. Fluorescence is measured for each well at 1 second intervals for 5 minutes and the height of each fluorescence peak is compared to the height of the fluorescence peak induced by 70 pM Ala-6,12 orexin-A with buffer in place of antagonist. For each antagonist, IC50 value (the concentration of compound needed to inhibit 50% of the agonist response) is determined. Alternatively, compound potency can be assessed by a radioligand binding assay (described in Bergman et. al. Bioorg. Med. Chem. Lett. 2008, 18, 1425-1430) in which the inhibition constant (Ki) is determined in membranes prepared from CHO cells expressing either the OX1 or OX2 receptor. The intrinsic orexin receptor antagonist activity of a compound which may be used in the present invention may be determined by these assays.

Sequence of human orexin-2 receptor (O43614 whole entry): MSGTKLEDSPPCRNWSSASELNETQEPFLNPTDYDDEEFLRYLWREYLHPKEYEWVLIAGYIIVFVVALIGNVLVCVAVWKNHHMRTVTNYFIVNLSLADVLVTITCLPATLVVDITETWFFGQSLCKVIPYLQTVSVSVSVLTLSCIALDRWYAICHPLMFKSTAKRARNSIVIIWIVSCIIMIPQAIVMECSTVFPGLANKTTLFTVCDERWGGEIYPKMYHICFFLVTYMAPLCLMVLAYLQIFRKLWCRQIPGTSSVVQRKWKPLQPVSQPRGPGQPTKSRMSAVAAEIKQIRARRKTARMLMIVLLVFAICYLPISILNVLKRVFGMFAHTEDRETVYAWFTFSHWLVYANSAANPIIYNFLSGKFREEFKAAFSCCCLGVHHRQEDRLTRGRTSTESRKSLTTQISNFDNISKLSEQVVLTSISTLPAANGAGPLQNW

In the case of `CCc1cnc2c(O[C@@H]3CC[C@@H](C)N(C(=O)c4ccccc4-n4nccn4)C3)nccn12` [Example 37, (2-(2H-1,2,3-triazol-2-yl)phenyl)((2R,5R)-5-((3-ethylimidazo[1,2-a]pyrazin-8-yl)oxy)-2-methylpiperidin-1-yl)methanone], the IC50 turned out to be 29.2 nM. Regarding `C[C@@H]1CC[C@@H](Oc2nccn3c(C(F)F)cnc23)CN1C(=O)c1ccccc1-c1cnccn1` [Example 53, ((2R,5R)-5-((3-(difluoromethyl)imidazo[1,2-α]pyrazin-8-yl)oxy)-2-methylpiperidin-1-yl)(2-(pyrazin-2-yl)phenyl)methanone], the IC50 was found to be 21.3 nM. Turning to `Cc1cn2ccnc(O[C@@H]3CC[C@@H](C)N(C(=O)c4cccnc4OCC(F)(F)F)C3)c2n1` [Example 16, ((2R,5R)-2-methyl-5-((2-methylimidazo [1,2-α]pyrazin-8-yl)oxy)piperidin-1-yl) (2-(2,2,2-trifluoroethoxy)pyridin-3-yl)methanone], the IC50 came to 33.5 nM. Regarding `C[C@@H]1CC[C@@H](Oc2nccn3c(C(F)F)cnc23)CN1C(=O)c1ccc(F)cc1-n1nccn1` [Example 43, ((2R,5R)-5-((3-(difluoromethyl)imidazo[1,2-α]pyrazin-8-yl)oxy)-2-methylpiperidin-1-yl)(4-fluoro-2-(2H-1,2,3-triazol-2-yl)phenyl)methanone], the IC50 worked out at 15.7 nM. The value for `C[C@@H]1CC[C@@H](Oc2nccn3c(C(F)F)cnc23)CN1C(=O)c1cccnc1-n1cccn1` [Example 52, (2-(1H-pyrazol-1-yl)pyridin-3-yl)((2R,5R)-5-((3-(difluoromethyl)imidazo[1,2-α]pyrazin-8-yl)oxy)-2-methylpiperidin-1-yl)methanone] was 15.8 nM; that for `C[C@@H]1CC[C@@H](Oc2nccn3c(C(F)F)cnc23)CN1C(=O)c1cscc1-c1ncccn1` [Example 55, ((2R,5R)-5-((3-(difluoromethyl)imidazo [1,2-α]pyrazin-8-yl)oxy)-2-methylpiperidin-1-yl)(4-(pyrimidin-2-yl)thiophen-3-yl)methanone] was 44.9 nM; that for `C[C@@H]1CC[C@@H](Oc2nccn3c(Cl)cnc23)CN1C(=O)c1ccccc1C1(C#N)CC1` [Example 28, 1-(2-((2R,5R)-5-((3-chloroimidazo[1,2-α]pyrazin-8-yl)oxy)-2-methylpiperidine-1-carbonyl)phenyl) cyclopropanecarbonitrile] was 9.5 nM. In the case of `C[C@@H]1CC[C@@H](Oc2nccn3nccc23)CN1C(=O)c1nccnc1-n1cccn1` [Example 80, (3-(1H-pyrazol-1-yl)pyrazin-2-yl)((2R,5R)-2-methyl-5-(pyrazolo[1,5-α]pyrazin-4-yloxy)piperidin-1-yl)methanone] it was 31.7 nM; in that of `Cc1cn2ccnc(O[C@@H]3CC[C@@H](C)N(C(=O)c4cccnc4-n4cccn4)C3)c2n1` [Example 18, (2-(1H-pyrazol-1-yl)pyridin-3-yl) ((2R,5R)-2-methyl-5-((2-methylimidazo[1,2-α]pyrazin-8-yl)oxy)piperidin-1-yl)methanone], 58.7 nM; in that of `C[C@@H]1CC[C@@H](Oc2nccn3ncc(Br)c23)CN1C(=O)c1ccccc1-n1nccn1` [Example 88, (2-(2H-1,2,3-triazol-2-yl)phenyl)((2R,5R)-5-((3-bromopyrazolo[1,5-a]pyrazin-4-yl)oxy)-2-methylpiperidin-1-yl)methanone], 7.3 nM.

On to `Cc1cn2ccnc(O[C@@H]3CC[C@@H](C)N(C(=O)c4ccc(F)cc4-n4nccn4)C3)c2n1` [Example 10, (4-fluoro-2-(2H-1,2,3-triazol-2-yl)phenyl)((2R,5R)-2-methyl-5-((2-methylimidazo[1,2-α]pyrazin-8-yl)oxy)piperidin-1-yl)methanone], for which the IC50 was 31.2 nM. Regarding `C[C@@H]1CC[C@@H](Oc2nccn3ccnc23)CN1C(=O)c1ccccc1CS(C)(=O)=O` [Example 2, ((2R,5R)-5-(imidazo[1,2-a]pyrazin-8-yloxy)-2-methylpiperidin-1-yl)(2-((methylsulfonyl)methyl)phenyl)methanone], the IC50 is 59 nM. The value for `C[C@@H]1CC[C@@H](Nc2nccc3c2ncn3C)CN1C(=O)c1ccccc1-n1nccn1` [Example 101, (2-(2H-1,2,3-triazol-2-yl)phenyl)((2R,5R)-2-methyl-5-((1-methyl-1H-imidazo[4,5-c]pyridin-4-yl)amino)piperidin-1-yl)methanone] was 38.5 nM; that for `Cc1cn2ccnc(O[C@@H]3CC[C@@H](C)N(C(=O)c4ccccc4-n4nccn4)C3)c2n1` [Example 6, (2-(2H-1,2,3-triazol-2-yl)phenyl)((2R,5R)-2-methyl-5-((2-methylimidazo[1,2-a]pyrazin-8-yl)oxy)piperidin-1-yl)methanone] was 8 nM. The value for `C[C@@H]1CC[C@@H](Oc2nccn3c(Cl)cnc23)CN1C(=O)c1ccsc1-n1nccn1` [Example 29, (2-(2H-1,2,3-triazol-2-yl)thiophen-3-yl)((2R,5R)-5-((3-chloroimidazo[1,2-α]pyrazin-8-yl)oxy)-2-methylpiperidin-1-yl)methanone] was 14.3 nM; that for `C[C@@H]1CC[C@@H](Oc2nccn3cncc23)CN1C(=O)c1ccccc1-n1nccn1` [Example 102, (2-(2H-1,2,3-triazol-2-yl)phenyl)((2R,5R)-5-(imidazo[1,5-a]pyrazin-8-yloxy)-2-methylpiperidin-1-yl)methanone] was 14 nM.

With `C[C@@H]1CC[C@@H](Oc2nccn3c(C(F)F)cnc23)CN1C(=O)c1ccsc1-c1ncccn1` [Example 56, ((2R,5R)-5-((3 (difluoromethyl)imidazo [1,2-α]pyrazin-8-yl)oxy)-2-methylpiperidin-1-yl)(2-(pyrimidin-2-yl)thiophen-3-yl)methanone], the IC50 was determined as 53.7 nM. `C[C@@H]1CC[C@@H](Nc2nccc3ncn(C)c23)CN1C(=O)c1ccccc1-n1nccn1` [Example 100, (2-(2H-1,2,3-triazol-2-yl)phenyl)((2R,5R)-2-methyl-5-((3-methyl-3H-imidazo[4,5-c]pyridin-4-yl)amino)piperidin-1-yl)methanone]: the IC50 came to 95.8 nM. Consider `C[C@@H]1CC[C@@H](Oc2nccn3ccnc23)CN1C(=O)c1ccccc1CS(C)(=O)=O` [Example 77, ((2R,5R)-5-(imidazo[1,2-α]pyrazin-8-yloxy)-2-methylpiperidin-1-yl)(2-((methylsulfonyl)methyl)phenyl) methanone], for which the IC50 turned out to be 27.9 nM. The value for `C[C@@H]1CC[C@@H](Nc2nccn3c(Cl)cnc23)CN1C(=O)c1ccccc1-n1nccn1` [Example 30, (2-(2H-1,2,3-triazol-2-yl)phenyl)((2R,5R)-5-((3-chloroimidazo[1,2-a]pyrazin-8-yl)amino)-2-methylpiperidin-1-yl)methanone] was 13.9 nM.

Regarding `COC(=O)c1ccccc1C(=O)N1C[C@H](Oc2nccn3nccc23)CC[C@H]1C` [Example 79, methyl 2-((2R,5R)-2-methyl-5-(pyrazolo[1,5-α]pyrazin-4-yloxy)piperidine-1-carbonyl)benzoate], the IC50 was 44.2 nM. For the compound `C[C@@H]1CC[C@@H](Oc2nccn3cc(C(F)(F)F)nc23)CN1C(=O)c1ccccc1-n1nccn1` [Example 21, (2-(2H-1,2,3-triazol-2-yl)phenyl)((2R,5R)-2-methyl-5-((2-(trifluoromethyl)imidazo[1,2-a]pyrazin-8-yl)oxy)piperidin-1-yl)methanone], the IC50 is 63.7 nM.

Take `C[C@@H]1CC[C@@H](Oc2nccc3ncn(C)c23)CN1C(=O)c1ccccc1-n1nccn1` [Example 99, (2-(2H-1,2,3-triazol-2-yl)phenyl)((2R,5R)-2-methyl-5-((3-methyl-3H-imidazo[4,5-c]pyridin-4-yl)oxy)piperidin-1-yl)methanone]: the IC50 came to 42.3 nM.

As for `C[C@@H]1CC[C@@H](Oc2nccn3c(C(F)F)cnc23)CN1C(=O)c1ccccc1-n1ncnn1` [Example 44, (2-(2H-tetrazol-2-yl)phenyl)((2R,5R)-5-((3-(difluoromethyl)imidazo[1,2-α]pyrazin-8-yl)oxy)-2-methylpiperidin-1-yl)methanone], the IC50 turned out to be 9.6 nM.
